Legend:
[1] = target: T1, mitochondrial ATP synthase gamma subunit (ATP5C) (Homo sapiens, UniProt P36542); test: Pull-down assay with biotin-labeled peptides and protein identification; type: binding; conditions: mitochondrial fraction of PC3 cells, biotin-labeled peptide, 16 hr at 4° C.
T1 construct: endogenous in cells; host or cells: PC3 human prostate cancer cells, mitochondrial fraction (detergent extract)
T1 sequence (P36542 26-298): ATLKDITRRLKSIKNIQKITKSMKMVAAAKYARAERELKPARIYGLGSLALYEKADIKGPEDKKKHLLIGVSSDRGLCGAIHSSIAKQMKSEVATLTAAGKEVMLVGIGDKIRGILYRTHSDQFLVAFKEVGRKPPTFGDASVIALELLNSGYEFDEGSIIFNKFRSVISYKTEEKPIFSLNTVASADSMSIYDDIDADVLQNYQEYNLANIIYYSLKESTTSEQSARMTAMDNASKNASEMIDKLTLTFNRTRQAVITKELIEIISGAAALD
Description: 8A, TEM image of PC3 cells. Representative TEM micrograph of aurB-treated cells depicting the intraritochondrial localization of aurB-GNRs (arrowheads) and mitochondria](Mt) swelling. Scale bar: 600 nm. Mt: mitochondria. […] Coomassie-stained SDS-PAGE gels are shown (8B). The protein band at ˜35 kDa (arrowhead) was identified as ATP5C using mass spectrometry analysis. The identified fragments are indicated in green underlined sequence (SEQ ID NO: 4)(8C).
Pull-down assay and protein identification: PC3 cells were washed twice with PBS, and the mitochondrial fraction was prepared with a Qproteome mitochondria isolation kit (Qiagen). […] The peptides were then preincubated with streptavidin-agarose beads for 4 hr. After washing, the beads were boiled, and the released proteins were subjected to SDS-PAGE analysis. A protein band of ˜35 kDa was subjected to microcapillary LC/MS/MS for protein identification (Harvard Medical School, Taplin Mass Spectrometry Facility). For IB, proteins were transferred to nitrocellulose membranes. After blocking with 5% BSA in TBST, the membranes were incubated with anti-ATP5C antibody at 1:25,000 in 5% BSA/TBST (Abcam) for 16 hr at 4° C. The secondary antibody was applied (anti-goat IgG-HRP; Santa Cruz Biotechnology). The signal was detected using enhanced chemiluminescence (ECL).

PC3 cells [2] = test: Annexin-V apoptosis assay by flow cytometry, PC3; type: cell-based, human; conditions: PC3, 48 hr; Ptxl 1 nM, p28 50 μM, aurA/aurB 0.5-50 μM
Method: (§1) FIG. 7A-7D: Determination of apoptotic cell death. Prostate cancer cell lines (7A: LNCaP, 7B: DU145 and 7C: PC3) and normal prostate CRL11611 cells (7D) were exposed to the indicated agents for 48 hr and stained using apoptosis assay kits according to the manufacturer's instructions. The samples were analyzed by flow cytometry. Mean±SE (N=3).
(§2) After 48 hr, annexin-V apoptosis assays (Thermo Fisher Scientific) were conducted to detect apoptotic cells. At least 10,000 cells in each case were analyzed by FACS (RRC, UIC).

PC3 cells [3] = test: Cellular membrane toxicity, LDH leakage assay; type: cell-based, human; conditions: PC3, 0.2-200 μM, 37° C.
Method: FIG. 6A-6B: Cellular membrane toxicity assays. […] Cells treated with lysis buffer were defined as having 100% LDH release. Mean±SE (N=3).
Cellular membrane toxicity: LDH assays were performed as we previously described (Cha et al., Cancer Research 2020, 80: 1615-1623).

[4] = test system: LNCaP prostate cancer cells; test: MTT cell viability assay, LNCaP prostate cancer cells; type: cell-based, human; conditions: LNCaP (p53 wild-type, AR+), 24-72 hr; paclitaxel 1 nM
Method: (§3) Cell lines and culture: Human cancer and noncancer (immortalized and nonimmortalized) cell lines were obtained from the American Type Culture Collection [prostate cancer (PC3, DU145 and LNCaP), normal prostate (CRL11611), breast cancer (MCF-7), ovarian cancer (SK-OV3 adenocarcinoma), lung cancer (A549)]. MDD2 breast cancer cells (p53 dominant-negative) were provided courtesy of Dr Andrei V. Gudkov, Roswell Park Cancer Institute. 20 All cell lines were cultured in MEM-E (Invitrogen) supplemented with 10% heat-inactivated fetal bovine serum (Atlanta Biological, Inc.), 100 units/mL penicillin, and 100 μg/mL streptomycin at 37° C. in 5% CO2.

Human cancer cells = test: MTT cell viability assay, human cancer cell panel; type: cell-based; conditions: 5-100 μM, 24 hr, 37° C.
Method: (§4) Cell viability was detected by MTT assays, and the control (PBS-treated) cells were considered 100% viable. Mean±SE (N=3). *P<0.05, **P<0.01, ***P<0.001.
Cytotoxicity assay: The MTT assay was performed as we previously described (Cha et al., Cancer Research 2020, 80: 1615-1623).

[5] = Water solubility of peptides
[6] = test system: normal prostate CRL11611 cells; test: Annexin-V apoptosis assay by flow cytometry, normal prostate CRL11611; type: cell-based, human; conditions: normal CRL11611, 48 hr; Ptxl 1 nM, p28 50 μM, aurA/aurB 0.5-50 μM
Method: as §1, §2

[7] = test system: PC3 prostate cancer cells; test: MTT cell viability assay, PC3 prostate cancer cells; type: cell-based, human; conditions: PC3 (p53-null, AR−), 24-72 hr; paclitaxel 1 nM
Method: as §3

PC3 cells [8] = test: JC-1 mitochondrial membrane potential assay; type: cell-based, human; conditions: PC3, 1, 10 and 100 μM
Method: Cells were stained by using JC-1 Mitochondrial Membrane Potential Assay Kits according to the manufacturer's instructions to measure mitochondrial membrane potential, and fluorescence was measured by flow cytometry. 9B, Caspase-3 is involved in aurB-induced apoptosis. […] The inhibitor was used at the indicated concentrations. Mean±SE (N=3).
JC-1 dye (Invitrogen) was used to determine mitochondrial membrane potential. […] After washing with PBS, trypsinized PC3 cells were incubated with JC-1 dye and analyzed by FACS.

DU145 cells = test: Annexin-V apoptosis assay by flow cytometry, DU145; type: cell-based, human; conditions: DU145, 48 hr; Ptxl 1 nM, p28 50 μM, aurA/aurB 0.5-50 μM
Method: as §1, §2

LNCaP cells = test: Annexin-V apoptosis assay by flow cytometry, LNCaP; type: cell-based, human; conditions: 48 hr, Ptxl 1 nM, p28 50 μM, aurA/aurB 0.5-50 μM
Method: as §1, §2

[9] = test system: DU145 prostate cancer cells; test: MTT cell viability assay, DU145 prostate cancer cells; type: cell-based, human; conditions: DU145 (p53-mutant, AR−), 24-72 hr; paclitaxel 1 nM
Description: as §4, §3

## LVK GGE AEA ANI ANA GLS AGP AAN YLPA [aurA]
[1]
  binding to ATP5C (pull-down of ~35 kDa protein, IB): did not
PC3 cells [2]
  apoptotic cell death: very little effect
PC3 cells [3]
  cellular membrane toxicity (LDH release): Neither aurA nor aurB induced cellular membrane toxicity at any concentrations
[4]
  cytotoxic effect (MTT cell viability): not active
Human cancer cells
  anti-proliferative effect (MTT cell viability): little effect at any concentration tested
[5]
  water solubility: highly water-soluble
[6]
  apoptotic cell death: very little effect
[7]
  cytotoxic effect (MTT cell viability): not active
PC3 cells [8]
  effect on mitochondrial membrane potential (JC-1): did not impact
DU145 cells
  apoptotic cell death: very little effect
LNCaP cells
  apoptotic cell death: very little effect
[9]
  cytotoxic effect (MTT cell viability): not active
